Reference: PMC10716921 (Frontiers in Pharmacology, 2023)
Where two headings read alike, the source gives them in different places.

How the values were obtained:
[1] = test system: human skin cells, especially keratinocytes; conditions: ref Deptuła et al., 2020; cited from earlier work
From the text: (§1) Platelet-derived growth factor BB (PDGF-BB), one of the first growth factors released into the wound, plays a crucial role in the wound healing process. It is responsible for the formation of granulation tissue, production of extracellular matrix (ECM), takes part in the recruitment of mesenchymal stromal cells (MSCs), and stimulates the proliferation of fibroblasts ([White et al., 2021]). In 1997, the FDA approved human recombinant PDGF-BB in sodium carboxy-methylcellulose (NaCMC) hydrogel (Regranex®) for the treatment of DFUs ([Reyes-Martínez et al., 2019]). However, because of the high cos ...

mice = conditions: applied topically in 18% P407 hydrogel, mice model; ref Deptuła et al., 2020; cited from earlier work
From the text: as §1

[2] = test system: lymphocytes and basophils; conditions: cited from earlier work
From the text: as §1

skin cells = conditions: cited from earlier work
From the text: Platelet-derived growth factor BB (PDGF-BB), one of the first growth factors released into the wound, plays a crucial role in the wound healing process. It is responsible for the formation of granulation tissue, production of extracellular matrix (ECM), takes part in the recruitment of mesenchymal stromal cells (MSCs), and stimulates the proliferation of fibroblasts ([White et al., 2021]). In 1997, the FDA approved human recombinant PDGF-BB in sodium carboxy-methylcellulose (NaCMC) hydrogel (Regranex®) for the treatment of DFUs ([Reyes-Martínez et al., 2019]). However, because of the high cos ... || During the development of new biomaterials, it is crucial to analyze not only their physicochemical properties and activity but also their biocompatibility and potential risk to human cells and tissues ([Schmalz and […], 2017]). That is why we decided to evaluate the cytotoxicity of RADA-PDGF2 and its effect on immune cells. Based on our experience and literature data, we know that peptides can be cytotoxic to human cells ([Greco et al., 2020]). […] However, RADA- ...

[3] = in vivo, iv; cited from earlier work
From the text: as §1

[4] = test system: dermal fibroblast, 46BR.1N fibroblast, and HaCaT keratinocytes; assay type: cell-based, human
Protocol: Cell viability of dermal fibroblast, 46BR.1N fibroblast, and HaCaT keratinocytes was analyzed after 4 days of cell culture on RADA-PDGF2 hydrogel. RADA-PDGF2 was dissolved in water at a concentration of 1% w/v and placed in the inserts (0.4 µm) located in a 24-well plate. The whole was incubated for at least 1 hour at 37°C to allow gelation. Then, twice the volume of DMEM HG medium was added to the gel and left overnight in the incubator. The cells were trypsinized, centrifuge and then seeded on a gel at 50,000 per insert in DMEM HG medium with 2% FBS and 1% P/S. The medium was changed to DMEM HG with 2% FBS and 1% P/S after 2 days of incubation. After 4 days of incubation to assess viability, cells were stained with Calcein-AM (c = 8 µM) and propidium iodide (2 μg/mL) for 30 min and then analyzed by confocal microscopy with the use of Nikon Eclipse Ti-e Confocal Microscope.

[5] = assay type: physicochemical
Protocol: Blood samples provided by healthy volunteers were processed with lithium/heparin tubes to eliminate clots by centrifugation. Plasma aliquots were mixed with RADA-PDGF2 peptide for 24 h at 37°C, using a plasma to peptide volume ratio of (4:1% v/v), to obtain final concentration 2.69 µM of RADA-PDGF2 peptide.). Samples were collected at six time points (0, 1, 2, 3, 6, and 24 h) to assess water and plasma stability. The collected samples were then prepared and analyzed according to the protocol described earlier ([Dzierżyńska et al., 2023]).

[6] = test system: human peripheral blood mononuclear cells (PBMCs); assay: Immunological analysis: activation of immune cells by flow cytometry; assay type: cell-based
Protocol: The analysis of the effect on immune cells in vitro was performed with human peripheral blood mononuclear cells (PBMCs) isolated from “buffy coats” using a Ficoll density gradient (Histopaque, Sigma-Aldrich Co.). The procedure was approved by the Independent Bioethics Commission for Research of the Medical University of Gdańsk (NKBBN/387/2014). 100 ul of 1% RADA-PDGF2 was placed in a 24-well plate. Then, culture inserts with a pore diameter of 0.4 μm were placed in the wells, and cells were seeded into them in the amount of 0.5 million cells/0.5 mL RPMI 1640 (P/S, 10% FBS)/well. This was then supplemented with medium alone to a final volume of 1 mL/well. Cells were incubated in standard conditions for 24 h. The negative control was unstimulated cells, grown in the insert, in a well without gels. RADA16-I constituted an additional control. After the incubation, cells were harvested, washed in PBS, counted, and prepared for cytometric analysis. 100,000 cells/100 µL were stained with fluorochrome-conjugated monoclonal antibodies (anti-CD3, anti-CD4, anti-CD8, anti-CD16, anti-CD56, anti-CD25, anti-CD69, anti-CD71, anti-HLA-DR, anti-CD11c, anti-CD80, and anti-CD83). Following 30 min of incubation at room temperature (RT) in the dark, the cells were analyzed using a flow cytometer (LSRFortessa, BD).

[7] = previous stability studies; ref Dzierżyńska et al., 2023; cited from earlier work
[8] = test system: human neutrophil elastase; assay: human neutrophil elastase enzyme (EC No. 3.4.21.37, Sigma Aldrich, USA) in 25 mM Tris HCl buffer, pH 7.5; conditions: 37°C, up to 30 min

## RLIDRTNANFL [PDGF2, peptide … derived from PDGF-BB]
[1]
  pro-proliferative properties: strong pro-proliferative properties
mice
  effect on wound healing: accelerates wound healing
[2]
  immunogenicity in vitro: negligible lymphocyte and basophil activation
Skin cells
  cytotoxicity: minimal cytotoxicity

## PDGF-BB: Platelet-derived growth factor BB
[3]
  half-life: a few minutes

## CC[C@H](C)[C@H](NC(=O)[C@H](CC(C)C)NC(=O)[C@H](CCCNC(=N)N)NC(=O)CNC(=O)CNC(=O)CNC(=O)[C@@H](NC(=O)[C@@H]1CCCN1C(=O)[C@H](C)NC(=O)[C@H](C)NC(=O)CNC(=O)CNC(=O)CNC(=O)[C@H](C)NC(=O)[C@H](CC(=O)O)NC(=O)[C@H](C)NC(=O)[C@H](CCCNC(=N)N)NC(=O)[C@H](C)NC(=O)[C@H](CC(=O)O)NC(=O)[C@H](C)NC(=O)[C@H](CCCNC(=N)N)NC(=O)[C@H](C)NC(=O)[C@H](CC(=O)O)NC(=O)[C@H](C)NC(=O)[C@H](CCCNC(=N)N)NC(=O)[C@H](C)NC(=O)[C@H](CC(=O)O)NC(=O)[C@H](C)NC(=O)[C@H](CCCNC(=N)N)NC(C)=O)C(C)C)C(=O)N[C@@H](CC(=O)O)C(=O)N[C@@H](CCCNC(=N)N)C(=O)N[C@H](C(=O)N[C@@H](CC(N)=O)C(=O)N[C@@H](C)C(=O)N[C@@H](CC(N)=O)C(=O)N[C@@H](Cc1ccccc1)C(=O)N[C@@H](CC(C)C)C(N)=O)[C@@H](C)O [RADA-PDGF2]
[4]
  skin cell viability on hydrogel: remained viable
[5]
  time over which the peptide exhibited chemical stability in aqueous solution: 24 h
[6]
  CD11c+CD83+ active DCs population compared to untreated control: statistically significant increase
  NK cells: expression of CD25: slight increase
  NK cells: expression of CD71: reduction
  NK cells: statistical significance of change in activation markers: no statistical significance was noted
  Th cells: expression of activation markers versus unstimulated cells: any statistically significant differences between unstimulated cells and cells stimulated with RADA-PDGF2 were not observed
  cytotoxic lymphocytes (CTL): expression of CD69 marker: increased expression
  overall immunological assessment: safe in an immunological context

## CC(=O)N[C@@H](CCCNC(=N)N)C(=O)N[C@@H](C)C(=O)N[C@@H](CC(=O)O)C(=O)N[C@@H](C)C(=O)N[C@@H](CCCNC(=N)N)C(=O)N[C@@H](C)C(=O)N[C@@H](CC(=O)O)C(=O)N[C@@H](C)C(=O)N[C@@H](CCCNC(=N)N)C(=O)N[C@@H](C)C(=O)N[C@@H](CC(=O)O)C(=O)N[C@@H](C)C(=O)N[C@@H](CCCNC(=N)N)C(=O)N[C@@H](C)C(=O)N[C@@H](CC(=O)O)C(=O)N[C@@H](C)C(N)=O [RADA16-I, reference compound]
[7]
  presence of peptide in plasma: did not show prolonged presence of peptide in plasma
[6]; PBMCs, 24 h, due to the low values of the changes
  overall immunological assessment: safe in an immunological context

## Ac-(RADA)4GGGAAPVGGGRLIDRTNANFL-NH2
[8]
  cleaved bond: V23-G24, major
